Series [1] concerns the target T1, Androgen receptor (Homo sapiens) (UniProt P10275).
T1 sequence (whole entry): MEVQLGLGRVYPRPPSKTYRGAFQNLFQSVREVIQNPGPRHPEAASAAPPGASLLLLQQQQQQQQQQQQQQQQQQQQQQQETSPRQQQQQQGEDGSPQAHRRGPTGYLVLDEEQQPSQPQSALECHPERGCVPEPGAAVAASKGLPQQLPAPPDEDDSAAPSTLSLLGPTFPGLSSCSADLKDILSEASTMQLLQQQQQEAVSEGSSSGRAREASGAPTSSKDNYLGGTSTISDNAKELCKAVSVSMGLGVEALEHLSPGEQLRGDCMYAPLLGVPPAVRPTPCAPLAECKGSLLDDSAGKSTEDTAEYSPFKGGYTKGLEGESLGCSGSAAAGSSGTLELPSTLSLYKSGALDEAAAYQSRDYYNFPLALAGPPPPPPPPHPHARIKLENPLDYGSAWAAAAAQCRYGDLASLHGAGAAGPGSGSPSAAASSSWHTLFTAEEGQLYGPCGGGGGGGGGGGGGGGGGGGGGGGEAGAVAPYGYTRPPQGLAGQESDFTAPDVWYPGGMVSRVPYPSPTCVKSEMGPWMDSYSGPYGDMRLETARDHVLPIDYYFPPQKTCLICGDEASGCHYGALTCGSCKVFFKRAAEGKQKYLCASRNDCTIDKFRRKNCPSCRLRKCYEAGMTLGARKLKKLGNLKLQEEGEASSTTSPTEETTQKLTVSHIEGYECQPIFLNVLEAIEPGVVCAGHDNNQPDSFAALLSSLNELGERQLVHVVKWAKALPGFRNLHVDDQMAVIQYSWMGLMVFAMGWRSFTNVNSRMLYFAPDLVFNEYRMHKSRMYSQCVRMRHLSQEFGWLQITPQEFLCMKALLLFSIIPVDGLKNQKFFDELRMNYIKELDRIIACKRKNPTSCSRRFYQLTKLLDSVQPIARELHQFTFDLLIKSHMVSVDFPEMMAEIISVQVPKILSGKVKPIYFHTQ
Conditions: CV-1.
Description: Relative stimulatory activity compared to 5-alpha-DHT in CV-1 cells expressing androgen receptor

Series [2] relates to Rattus norvegicus. Kind of series: Distribution of tissue Radioactivity following Intravenous injection into castrated male rat prostate/blood. The format is ADME, organism-based. Conditions: other tissue.
Series [3] has as its system Rattus norvegicus. The series is described as follows: Distribution of tissue Radioactivity following Intravenous injection into castrated male rat and 5-alpha-DHT was reported. Conditions: in vivo. It is filed as ADME, organism-based.

In series [1], `CC12CC[C@@H]3C4CCC(=O)CC4C[C@@H](I)[C@H]3[C@@H]1CC[C@]2(C)O` (stereo partly specified) came in with an RSA of 8.
Take `CC12CC[C@H]3[C@@H]([C@H](I)CC4CC(=O)CCC43C)[C@@H]1CCC2O` (stereo partly specified): the figures for the Biodistribution in series [2] and in series [3] were 1.34% and 0.94%, respectively. The RSA in series [1] amounted to 20.
Molecule `CC12CC[C@@H]3C4CCC(=O)CC4C[C@@H](F)[C@H]3[C@@H]1CC[C@]2(C)O` (stereo partly specified) displayed an RSA in series [1] of 16.
Same read-out and setting: the result for `CC12CCC(=O)CC1C[C@@H](F)[C@@H]1[C@@H]2CCC2(C)[C@H]1CC[C@]2(C)O` (stereo partly specified) reads 418.

For the origin of these results see ChEMBL document CHEMBL1132232, “7alpha-Iodo and 7alpha-fluoro steroids as androgen receptor-mediated imaging agents” (J Med Chem, 1999).
